Experiment [1] concerns TNF-α, IL-1β, IL-6, iNOS and COX-2. The experiment in a line: Pro-inflammatory cytokine gene expression in abscess tissue, qPCR. It counts as in vivo, mouse. The note with it: mRNA relative to β-actin. (In general: In qPCR the cycle at which signal appears reflects the starting amount.)
Experimental: For mice not infected with bacteria, infected mice, and mice subjected to treatment using PEP27-2 alone, ceftriaxone alone or a combination thereof after infection, the expression of inflammatory genes in the mice were measured thus to verify the efficacy of each of PEP27-2 single treatment and combination treatment with antibiotics.
Specifically, total RNA was isolated from wound tissues using Trizol reagent. From the prepared total RNA, cDNA was synthesized using a cDNA synthesis kit. qPCR was implemented using qPCR 2× premix (SYBR Green), followed by determining expression amounts of TNF-α, IL-1β, IL-6, iNOS and COX-2 among inflammatory genes. Expression levels were quantified based on β-actin, and the PCR process was conducted as followed: at 50° C. for 2 minutes and at 95° C. for 10 minutes; 95° C. for 15 seconds, 60° C. for 1 minute, 40 cycles; 95° C. for 15 seconds, 60° C. for 1 minute, 95° C. for 30 seconds, and 60° C. for 15 seconds. The gene expression was calculated after standardization to β-actin level through ΔΔCt method.
In experiment [2] the test system is Staphylococcus aureus MW2. It counts as in vivo, BALB/c mouse. To be noted: for reduction of the number of bacteria in abscess tissue: 0.2 mg/kg alone, injected 2 hours after infection. The procedure:
The efficacy of PEP27-2, which is the peptide having the most excellent antimicrobial activity among the peptides prepared by the method of above 1 was evaluated in vivo using a mouse model.
Specifically, the epidermis on the back side (dorsal side) of 6-7 week old BALB/c mouse was infected with Staphylococcus aureus MW2 having GFP gene inserted therein (S. aureus MW2-GFP, 1×10^9 CFU/10 μl PBS). After 2 hours form infection, PEP27-2 alone (0.2 mg/kg, 50 μl), ceftriaxone alone (0.2 mg/kg, 50 μl) or a combination of the peptide and the antibiotic (0.05 mg/kg PEP27-2+0.1 mg/kg ceftriaxone, 50 μl) was injected. Further, the control mice were injected with the same amount of PBS ([…]) without peptide. On 1st, 2nd, 3rd, 4th, 5th and 7th days after treatment, the shape of abscess was photographed, and surrounding tissues as well as the abscess were gathered. The abscess tissue was homogenized in 500 μl of sterile PBS using a tissue grinder. A serial diluted solution of the homogenate was spread on an agar plate and cultured for 24 hours in order to quantify the Staphylococcus aureus MW2 strain.

The subject of experiment [3] is Staphylococcus aureus MW2. Kind of experiment: Hematoxylin and eosin staining of abscess tissue. To be noted: tissue on day 7, treated 2 hours after infection. It counts as in vivo, mouse. An excerpt: Among tissues on the abscess portion and infected portion gathered in the above 13, the tissue on day 7 was fixed with 4% buffered formalin. The infection portion or abscess portion fixed with formalin was embedded in paraffin, while staining a fragment of the cross-section with hematoxylin and eosin.

A further experiment has as its system S. aureus CCARM3090. The experiment in a line: microbe, parasite or virus in culture. To be noted: Staphylococcus aureus, CCARM3090, 18 h, read-out: Minimal inhibitory concentration. The procedure:
(§1) In order to evaluate the antimicrobial activity of the peptides prepared by the method of above 1, a minimal inhibitory concentration (MIC) value as the minimum concentration of a peptide, in which cells are not divided, was measured.
(§2) Specifically, the strains shown in Table 3 below were purchased, cultured in a medium having a constitutional composition suitable for each strain to a mid-log phase, and then diluted to a concentration of 2×10^4 cells/100 μl to prepare the product on a micro-titration plate (Nunc, USA). Then, PEP27, PEP27-1, PEP27-2 or PEP27-5 peptide synthesized in the above 1 was added to each well by serial dilution ½ times, followed by incubation at 37° C. for 18 hours.
(§3) Specifically, subject strains were prepared by the method of above 2, and were treated with the antibiotics, that is, meropenem, ceftazidime, ceftriaxone or vancomycin, respectively, followed by determining MICs of the antibiotics.

Another experiment deals with S. aureus MW2. Kind of experiment: microbe, parasite or virus in culture. The note with it: Staphylococcus aureus, MW2, 18 h, read-out: Minimal inhibitory concentration. On the procedure:
as §1, §2, §3

Another experiment relates to S. aureus USA300. Kind of experiment: microbe, parasite or virus in culture. The note with it: Staphylococcus aureus, USA300, 18 h, read-out: Minimal inhibitory concentration. The procedure: as §1, §2, §3
The subject of the next experiment is S. aureus ATCC25923. The experiment in a line: microbe, parasite or virus in culture. The note with it: Staphylococcus aureus, ATCC25923, 18 h, read-out: Minimal inhibitory concentration. On the procedure: as §1, §2, §3
The test system of another experiment is S. aureus CCARM3518. The experiment in a line: microbe, parasite or virus in culture. To be noted: Staphylococcus aureus, CCARM3518, 18 h, read-out: Minimal inhibitory concentration. The procedure:
as §1, §2, §3

A further experiment concerns P. aeruginosa ATCC27853. The experiment in a line: microbe, parasite or virus in culture. The note with it: Pseudomonas aeruginosa, ATCC27853, 18 h, read-out: Minimal inhibitory concentration. On the procedure: as §1, §2, §3
The next experiment relates to P. aeruginosa 4891. The experiment in a line: microbe, parasite or virus in culture. The note with it: Pseudomonas aeruginosa, 4891, 18 h, read-out: Minimal inhibitory concentration. On the procedure:
as §1, §2, §3

A further experiment deals with P. aeruginosa ATCC15692. The experiment in a line: microbe, parasite or virus in culture. To be noted: Pseudomonas aeruginosa, ATCC15692, 18 h, read-out: Minimal inhibitory concentration. On the procedure: as §1, §2, §3
A further experiment relates to S. aureus CCARM3089. Kind of experiment: microbe, parasite or virus in culture. To be noted: Staphylococcus aureus, CCARM3089, 18 h, read-out: Minimal inhibitory concentration. The procedure: as §1, §2, §3
For a further experiment, the system named is S. aureus ATCC29213. Kind of experiment: microbe, parasite or virus in culture. The note with it: Staphylococcus aureus, ATCC29213, 18 h, read-out: Minimal inhibitory concentration. The procedure:
as §1, §2, §3

Another experiment relates to P. aeruginosa 4007. The experiment in a line: microbe, parasite or virus in culture. To be noted: Pseudomonas aeruginosa, 4007, 18 h, read-out: Minimal inhibitory concentration. On the procedure: as §1, §2, §3
Experiment [4] concerns Staphylococcus aureus MW2-GFP. It counts as in vivo, mouse. To be noted: up to 3 days after infection with 1×10^9 CFU. On the procedure:
For real-time tracking the progress of infection with regard to the peptide that has the most excellent antimicrobial activity among the peptides prepared by the method of above 1, fluorescence (GFP)-labeled Staphylococcus aureus MW2 (Staphylococcus aureus MW2-GFP) was used. Fluorescence images were taken from the beginning of infection to 6 hours, 1 day, 2 days and 3 days by means of an FOBI fluorescence imaging system (Neo Science, Suwon, Korea), followed by analysis thereof using live image software.

The results in this text go back to US12180252B2, “Peptide derived from PEP27 peptide and uses thereof” (priority 2021, dated 2024).

Converted amounts (≈) assume the structure as drawn. Where two headings read alike, the source gives them in different places.

Regarding `CO/N=C(\C(=O)N[C@@H]1C(=O)N2C(C(=O)O)=C(CSc3nc(=O)c(=O)[nH]n3C)CS[C@H]12)c1csc(N)n1` [Ceftriaxone, ceftriaxone], the “expression of inflammatory cytokines (TNF-α, IL-1β, IL-6, iNOS, COX-2)” value in experiment [1] is “suppressed”. Besides, in experiment [2] (compared with infected group injected only with PBS, up to day 7), the “size of formed abscess” value is listed as “smaller than the experimental group in which only PBS was injected”. Further, the “reduction of the number of bacteria in abscess tissue” value in [2] (day 3) came to 46.0%; in experiment [2] (day 7) it was 61.5%. The “number of visible scabs formed on the skin surface and number of bacteria” value in [3] is “markedly reduced”. Besides, the MIC in the experiment on S. aureus CCARM3090 was 512 µM (≈ 284 µg/mL); with S. aureus MW2 it was 32 µM (≈ 17.7 µg/mL); in the experiment with S. aureus USA300, 16 µM (≈ 8.87 µg/mL); with S. aureus ATCC25923, 8 µM (≈ 4.44 µg/mL); with S. aureus CCARM3518 it was 256 µM (≈ 142 µg/mL); with P. aeruginosa ATCC27853, 8 µM (≈ 4.44 µg/mL). The MIC came out at 64 µM (≈ 35.5 µg/mL) in the experiment on P. aeruginosa 4891; 16 µM (≈ 8.87 µg/mL) in the experiment on P. aeruginosa ATCC15692; 512 µM (≈ 284 µg/mL) in the experiment with S. aureus CCARM3089; 4 µM (≈ 2.22 µg/mL) in the experiment with S. aureus ATCC29213; 16 µM (≈ 8.87 µg/mL) in the experiment with P. aeruginosa 4007. Besides, the “fluorescence signal of S. aureus MW2-GFP at the abscess” value in [4] is given as “not reduced”.
